Read-outs that look alike come from different tables or passages of the source.
Columns and labels:
USP1/UAF1 enzyme = USP1/UAF1 enzyme (Homo sapiens, UniProt O94782); assay: USP1/UAF1 deubiquitination assay (ubiquitin-rhodamine 110 substrate); type: biochemical; details: read-out: USP1 IC50 (Ub-Rho)
How it was run: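 Cleavage of 150 nM ubiquitin-rhodamine 110 by 0.05 nM USP1/UAF1 was followed as fluorescence (Ex480/Em540, kinetic, 30 min) in Tris-HCl pH 7.8 buffer with EDTA, BSA, DTT and Tween-20. Compounds, top 10 μM, were preincubated with enzyme 10 min; % inhibition against no-enzyme and DMSO wells gave four-parameter IC50s.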

[1] = ADME solubility determination in PBS at pH 2.0 and pH 7.4; type: physicochemical; details: for solubility at 24 h: phosphate buffered saline, 25 °C, thermodynamic from solid
How it was run: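 Solubility was read by LC-MS/MS on centrifuged supernatants, calibrated to a known-concentration standard and corrected for dilution. Compound, dried down from 10 mM DMSO stock, was equilibrated 24 h at 25° C with shaking in PBS at pH 2.0 or pH 7.4.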

[2] = tested on: Ub-PCNA levels in the nucleus of ES2 cells (USP1 activity); assay: ES2 Ub-PCNA immunofluorescence (IF) assay; type: cell-based; details: ES2 cells, 3 hours, Ub-PCNA immunofluorescence, read-out: USP1 IC50 (Ub-PCNA)
How it was run: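 AC50 derived from percent Ub-PCNA-positive nuclei, positivity set by a 95% cutoff from untreated-well intensities. Readout by imaging immunofluorescence (anti-Ub-PCNA, DAPI nuclear mask) after methanol fixation. Compound exposure: 3 h at 37° C, 0.3% DMSO final, on cells plated overnight.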

[3] = Liver microsomal metabolic stability, human liver microsomes (HLM); details: for half-life at 1 μM: human, liver microsomes
[4] = Liver microsomal metabolic stability, rat liver microsomes (RLM); details: 1 μM compound, 1 mg/mL microsomes, NADPH; for half-life at 1 μM: rat, liver microsomes, t1/2 (min) in RLM
[5] = pH 2, aqueous buffer, PBS pH 2.0, 25° C., read-out: Solubility at pH 2.0
[6] = pH 7.4, aqueous buffer, PBS pH 7.4, 25° C., read-out: Solubility at pH 7.4

Chain of USP1/UAF1 enzyme (O94782 whole entry): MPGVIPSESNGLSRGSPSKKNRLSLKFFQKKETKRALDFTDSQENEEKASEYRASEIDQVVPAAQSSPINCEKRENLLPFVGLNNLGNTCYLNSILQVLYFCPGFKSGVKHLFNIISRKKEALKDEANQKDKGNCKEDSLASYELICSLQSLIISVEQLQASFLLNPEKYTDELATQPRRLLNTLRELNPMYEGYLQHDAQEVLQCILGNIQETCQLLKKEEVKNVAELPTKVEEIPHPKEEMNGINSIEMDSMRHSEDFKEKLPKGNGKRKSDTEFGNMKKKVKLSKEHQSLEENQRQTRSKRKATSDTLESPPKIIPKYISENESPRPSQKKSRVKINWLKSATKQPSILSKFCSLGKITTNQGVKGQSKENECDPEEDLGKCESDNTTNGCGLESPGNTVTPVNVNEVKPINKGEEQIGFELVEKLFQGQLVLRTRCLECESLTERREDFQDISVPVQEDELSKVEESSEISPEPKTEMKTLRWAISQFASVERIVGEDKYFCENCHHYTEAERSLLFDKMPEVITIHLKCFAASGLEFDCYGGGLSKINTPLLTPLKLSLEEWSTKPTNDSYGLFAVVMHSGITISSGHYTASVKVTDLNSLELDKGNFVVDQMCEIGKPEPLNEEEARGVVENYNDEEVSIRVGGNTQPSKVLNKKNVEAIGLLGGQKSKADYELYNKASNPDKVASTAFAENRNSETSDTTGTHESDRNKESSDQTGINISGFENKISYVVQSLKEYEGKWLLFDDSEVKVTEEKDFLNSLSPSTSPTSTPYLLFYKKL
Chain of USP1/UAF1 enzyme (Q8TAF3 whole entry partner): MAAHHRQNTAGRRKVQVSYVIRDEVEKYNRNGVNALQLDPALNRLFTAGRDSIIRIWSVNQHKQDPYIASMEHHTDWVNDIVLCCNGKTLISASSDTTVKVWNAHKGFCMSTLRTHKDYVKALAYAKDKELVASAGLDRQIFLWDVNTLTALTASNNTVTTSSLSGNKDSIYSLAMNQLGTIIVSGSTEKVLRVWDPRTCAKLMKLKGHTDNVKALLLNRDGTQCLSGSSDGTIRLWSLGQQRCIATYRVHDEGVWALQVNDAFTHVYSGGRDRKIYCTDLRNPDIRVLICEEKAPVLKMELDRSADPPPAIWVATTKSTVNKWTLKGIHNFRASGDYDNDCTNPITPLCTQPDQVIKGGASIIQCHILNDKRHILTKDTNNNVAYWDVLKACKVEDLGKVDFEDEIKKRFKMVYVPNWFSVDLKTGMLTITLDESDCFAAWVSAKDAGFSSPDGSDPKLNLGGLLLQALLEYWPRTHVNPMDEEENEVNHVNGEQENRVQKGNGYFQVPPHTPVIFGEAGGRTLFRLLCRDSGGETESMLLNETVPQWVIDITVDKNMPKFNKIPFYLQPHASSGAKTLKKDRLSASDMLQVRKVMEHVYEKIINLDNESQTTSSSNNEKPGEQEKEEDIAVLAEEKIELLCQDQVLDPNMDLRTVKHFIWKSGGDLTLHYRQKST

CCn1cc(C(F)(F)F)nc1-c1ccc(O[C@H]2CCCn3nc(-c4c(OC)ncnc4C4CC4)cc32)cc1F (single isomer, unassigned) [Example 263]
IC50 (USP1/UAF1 enzyme): < 100 nM
solubility at 24 h [1, 5]: < 10 µM
solubility at 24 h [1, 6]: < 10 µM
IC50 ([2]; Homo sapiens, ES-2): < 100 nM
half-life at 1 μM [3]: > 25 min
half-life at 1 μM [4]: > 25 min

COc1ncnc(C2CC2)c1-c1cc2n(n1)CCCN2Cc1ccc(-c2nc(C(F)(F)F)cn2C(C)C)cc1 [Example 58]
IC50 (USP1/UAF1 enzyme): < 100 nM
solubility at 24 h [1, 5]: ≥ 10 µM
solubility at 24 h [1, 6]: < 10 µM
IC50 ([2]; Homo sapiens, ES-2): < 100 nM
half-life at 1 μM [3]: < 25 min
half-life at 1 μM [4]: < 25 min

Cc1cc(C(F)(F)F)nn1-c1ccc(CN2C(=O)CCn3nc(-c4c(Cl)cnn4C(C)C)cc32)cc1 [Example 86]
IC50 (USP1/UAF1 enzyme): < 100 nM
solubility at 24 h [1, 5]: < 10 µM
solubility at 24 h [1, 6]: < 10 µM
IC50 ([2]; Homo sapiens, ES-2): 100 to 500 nM
half-life at 1 μM [3]: > 25 min
half-life at 1 μM [4]: > 25 min

CCn1cc(C(F)(F)F)nc1-c1ccc(CC2OCCn3nc(-c4c(Cl)cnn4C(C)C)cc32)cc1 (stereo not drawn) [Example 265, 2-(4-chloro-1-isopropyl-1H-pyrazol-5-yl)-4-(4-(1-ethyl-4-(trifluoromethyl)-1H-imidazol-2-yl)benzyl)-6,7-dihydro-4H-pyrazolo[5,1-c][1,4]oxazine]
IC50 (USP1/UAF1 enzyme): < 100 nM
solubility at 24 h [1, 5]: < 10 µM
solubility at 24 h [1, 6]: < 10 µM
IC50 ([2]; Homo sapiens, ES-2): 100 to 500 nM
half-life at 1 μM [3]: < 25 min
half-life at 1 μM [4]: < 25 min

Cc1cc(C(F)(F)F)nn1-c1ccc(NC2CCCn3nc(-c4c(Cl)cnn4C(C)C)cc32)cc1 (stereo not drawn) [Example 244, 2-(4-chloro-1-isopropyl-1H-pyrazol-5-yl)-N-(4-(5-methyl-3-(trifluoromethyl)-1H-pyrazol-1-yl)phenyl)-4,5,6,7-tetrahydropyrazolo[1,5-a]pyridin-4-amine]
IC50 (USP1/UAF1 enzyme): < 100 nM
solubility at 24 h [1, 5]: < 10 µM
solubility at 24 h [1, 6]: < 10 µM
IC50 ([2]; Homo sapiens, ES-2): < 100 nM
half-life at 1 μM [3]: > 25 min
half-life at 1 μM [4]: > 25 min

CCn1cc(C(F)(F)F)nc1-c1ccc(CN2C(=O)CCn3nc(-c4c(OC(F)F)ncnc4C4CC4)nc32)cc1 [Example 364, 2-(4-cyclopropyl-6-(difluoromethoxy)pyrimidin-5-yl)-4-(4-(1-ethyl-4-(trifluoromethyl)-1H-imidazol-2-yl)benzyl)-6,7-dihydro-[1,2,4]triazolo[1,5-α]pyrimidin-5(4H)-one]
IC50 (USP1/UAF1 enzyme): < 100 nM
solubility at 24 h [1, 5]: < 10 µM
solubility at 24 h [1, 6]: < 10 µM
IC50 ([2]; Homo sapiens, ES-2): < 100 nM
half-life at 1 μM [3]: > 25 min
half-life at 1 μM [4]: > 25 min

COc1ncnc(C2CC2)c1-c1cc2n(n1)CCC(=O)N2Cc1ccc(-c2nc(C(F)(F)F)cn2C(C)C)cc1 [Example 72]
IC50 (USP1/UAF1 enzyme): < 100 nM
solubility at 24 h [1, 5]: < 10 µM
solubility at 24 h [1, 6]: < 10 µM
IC50 ([2]; Homo sapiens, ES-2): 100 to 500 nM
half-life at 1 μM [3]: > 25 min
half-life at 1 μM [4]: > 25 min

Cc1cnn(C(C)C)c1-c1nc2n(n1)CCC(=O)N2Cc1ccc(-c2nc(C(F)(F)F)cn2C(C)C)cc1 [Example 38]
IC50 (USP1/UAF1 enzyme): < 100 nM
solubility at 24 h [1, 5]: < 10 µM
solubility at 24 h [1, 6]: < 10 µM
IC50 ([2]; Homo sapiens, ES-2): < 100 nM
half-life at 1 μM [3]: < 25 min
half-life at 1 μM [4]: < 25 min

CC1CCn2nc(-c3c(Cl)cnn3C(C)C)cc2N1Cc1ccc(-c2nc(C(F)(F)F)cn2C(C)C)c(F)c1 (stereo not drawn) [Example 50]
IC50 (USP1/UAF1 enzyme): < 100 nM
solubility at 24 h [1, 5]: < 10 µM
solubility at 24 h [1, 6]: < 10 µM
IC50 ([2]; Homo sapiens, ES-2): < 100 nM
half-life at 1 μM [3]: < 25 min
half-life at 1 μM [4]: < 25 min

COc1ncnc(C2CC2)c1-c1cc2n(n1)CCC(=O)N2Cc1ccc(-n2nc(C(F)(F)F)cc2OC)cc1 [Example 80]
IC50 (USP1/UAF1 enzyme): < 100 nM
solubility at 24 h [1, 5]: < 10 µM
solubility at 24 h [1, 6]: < 10 µM
IC50 ([2]; Homo sapiens, ES-2): 100 to 500 nM
half-life at 1 μM [3]: > 25 min
half-life at 1 μM [4]: > 25 min

Cc1cnn(C(C)C)c1-c1nc2n(n1)CCCN2Cc1ccc(-c2nc(C(F)(F)F)cn2C)cc1 [Example 221, 2-(1-isopropyl-4-methyl-1H-pyrazol-5-yl)-4-(4-(1-methyl-4-(trifluoromethyl)-1H-imidazol-2-yl)benzyl)-4,5,6,7-tetrahydro-[1,2,4]triazolo[1,5-α]pyrimidine]
IC50 (USP1/UAF1 enzyme): < 100 nM
solubility at 24 h [1, 5]: ≥ 10 µM
solubility at 24 h [1, 6]: ≥ 10 µM
IC50 ([2]; Homo sapiens, ES-2): < 100 nM
half-life at 1 μM [3]: < 25 min
half-life at 1 μM [4]: < 25 min

CCn1cc(C(F)(F)F)nc1-c1ccc(NC2CCCn3nc(-c4c(OC)ncnc4C4CC4)cc32)cc1 (stereo not drawn) [Example 240, 2-(4-cyclopropyl-6-methoxypyrimidin-5-yl)-N-(4-(1-ethyl-4-(trifluoromethyl)-1H-imidazol-2-yl)phenyl)-4,5,6,7-tetrahydropyrazolo[1,5-a]pyridin-4-amine]
IC50 (USP1/UAF1 enzyme): < 100 nM
solubility at 24 h [1, 5]: ≥ 10 µM
solubility at 24 h [1, 6]: < 10 µM
IC50 ([2]; Homo sapiens, ES-2): < 100 nM
half-life at 1 μM [3]: > 25 min
half-life at 1 μM [4]: > 25 min

CCn1cc(C(F)(F)F)nc1-c1ccc(OC2CCCCn3nc(-c4c(Cl)cnn4C(C)C)cc32)cc1 (stereo not drawn) [Example 358, 2-(4-chloro-1-isopropyl-1H-pyrazol-5-yl)-4-(4-(1-ethyl-4-(trifluoromethyl)-1H-imidazol-2-yl)phenoxy)-5,6,7,8-tetrahydro-4H-pyrazolo[1,5-α]azepine]
IC50 (USP1/UAF1 enzyme): < 100 nM
solubility at 24 h [1, 5]: < 10 µM
solubility at 24 h [1, 6]: < 10 µM
IC50 ([2]; Homo sapiens, ES-2): < 100 nM
half-life at 1 μM [3]: > 25 min
half-life at 1 μM [4]: < 25 min

CCn1cc(C(F)(F)F)nc1-c1ccc([C@@H](C)N2C(=O)CCn3nc(-c4c(OC)ncnc4C4CC4)cc32)cc1F [Example 143]
IC50 (USP1/UAF1 enzyme): < 100 nM
solubility at 24 h [1, 5]: ≥ 10 µM
solubility at 24 h [1, 6]: ≥ 10 µM
IC50 ([2]; Homo sapiens, ES-2): < 100 nM
half-life at 1 μM [3]: > 25 min
half-life at 1 μM [4]: > 25 min

CCn1cc(C(F)(F)F)nc1-c1ccc(NC2CCCn3nc(-c4c(Cl)cnn4C(C)C)cc32)cc1C#N (stereo not drawn) [Example 255, 5-((2-(4-chloro-1-isopropyl-1H-pyrazol-5-yl)-4,5,6,7-tetrahydropyrazolo[1,5-a]pyridin-4-yl)amino)-2-(1-ethyl-4-(trifluoromethyl)-1H-imidazol-2-yl)benzonitrile]
IC50 (USP1/UAF1 enzyme): < 100 nM
solubility at 24 h [1, 5]: < 10 µM
solubility at 24 h [1, 6]: < 10 µM
IC50 ([2]; Homo sapiens, ES-2): 100 to 500 nM
half-life at 1 μM [3]: > 25 min
half-life at 1 μM [4]: < 25 min

CCn1cc(C(F)(F)F)nc1-c1ccc(CN2C(=O)CCn3nc(-c4c(OC)ncnc4C4CC4)nc32)c(OC)c1F [Example 217]
IC50 (USP1/UAF1 enzyme): < 100 nM
solubility at 24 h [1, 5]: ≥ 10 µM
solubility at 24 h [1, 6]: ≥ 10 µM
IC50 ([2]; Homo sapiens, ES-2): < 100 nM
half-life at 1 μM [3]: > 25 min
half-life at 1 μM [4]: > 25 min

COc1ncnc(C2CC2)c1-c1cc2n(n1)C(C)CCN2Cc1ccc(-c2nc(C(F)(F)F)cn2C)cc1 (racemic) [Example 51, 2-(4-cyclopropyl-6-methoxypyrimidin-5-yl)-7-methyl-4-(4-(1-methyl-4-(trifluoromethyl)-1H-imidazol-2-yl)benzyl)-4,5,6,7-tetrahydropyrazolo[1,5-α]pyrimidine]
IC50 (USP1/UAF1 enzyme): < 100 nM
solubility at 24 h [1, 5]: ≥ 10 µM
solubility at 24 h [1, 6]: < 10 µM
IC50 ([2]; Homo sapiens, ES-2): < 100 nM
half-life at 1 μM [3]: < 25 min
half-life at 1 μM [4]: < 25 min

CC(C)n1cc(C(F)(F)F)nc1-c1ccc(CN2C(=O)CCn3nc(-c4c(Cl)cnn4C(C)C)cc32)cc1 [Example 91]
IC50 (USP1/UAF1 enzyme): < 100 nM
solubility at 24 h [1, 5]: < 10 µM
solubility at 24 h [1, 6]: < 10 µM
IC50 ([2]; Homo sapiens, ES-2): < 100 nM
half-life at 1 μM [3]: > 25 min
half-life at 1 μM [4]: > 25 min

COc1ncnc(C2CC2)c1-c1cc2n(n1)CCCN2Cc1ccc(-n2nc(C(F)(F)F)cc2C)cc1 [Example 27]
IC50 (USP1/UAF1 enzyme): < 100 nM
solubility at 24 h [1, 5]: ≥ 10 µM
solubility at 24 h [1, 6]: < 10 µM
IC50 ([2]; Homo sapiens, ES-2): < 100 nM
half-life at 1 μM [3]: < 25 min
half-life at 1 μM [4]: < 25 min

CCn1cc(C(F)(F)F)nc1-c1ccc(C(C)N2CCCn3nc(-c4c(OC)ncnc4C4CC4)cc32)cc1 (stereo not drawn) [Example 66]
IC50 (USP1/UAF1 enzyme): < 100 nM
solubility at 24 h [1, 5]: ≥ 10 µM
solubility at 24 h [1, 6]: < 10 µM
IC50 ([2]; Homo sapiens, ES-2): < 100 nM
half-life at 1 μM [3]: < 25 min
half-life at 1 μM [4]: < 25 min

CCn1cc(C(F)(F)F)nc1-c1c(F)cc(CN2C(=O)CCn3nc(-c4c(Cl)cnn4C(C)C)cc32)cc1OC [Example 141]
IC50 (USP1/UAF1 enzyme): < 100 nM
solubility at 24 h [1, 5]: < 10 µM
solubility at 24 h [1, 6]: < 10 µM
IC50 ([2]; Homo sapiens, ES-2): < 100 nM
half-life at 1 μM [3]: > 25 min
half-life at 1 μM [4]: > 25 min

CCn1cc(C(F)(F)F)nc1-c1ccc([C@H](C)N2C(=O)CCn3nc(-c4c(OC)ncnc4C4CC4)nc32)cc1Cl [Example 212]
IC50 (USP1/UAF1 enzyme): < 100 nM
Solubility at pH 2.0 (μM) ([1]; PBS pH 2.0, 25° C., 24 hours): ++ (“++” indicates 10 μM or greater)
Solubility at pH 7.4 (μM) ([1]; PBS pH 7.4, 25° C., 24 hours): ++ (“++” indicates 10 μM or greater)
IC50 [2]: < 100 nM
t1/2 (min) in HLM ([3]; human liver microsomes, 1 μM compound, 1 mg/mL microsomes, NADPH): ++ (“++” indicates 25 minutes greater)
t1/2 (min) in RLM [4]: ++ (“++” indicates 25 minutes greater)
